Experimental findings from US20090238808A1, “Process for the identification of novel enzyme interacting compounds” (priority 2005, published 2009) are described below.

Holding throughout (assay): Kinobeads elution with test compound, mouse brain lysate, MS
Assay type in all cases: binding
Common to all, as to conditions: kinase released from kinobeads by specific elution

One assay deals with ARG (Mus musculus, UniProt Q4JIM5). The procedure, abridged: (§1)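 Kinobeads preloaded with mouse brain lysate under near-physiological buffer conditions were washed gently, then eluted for 30 min at 4° C with elution buffer holding 1.0 mM test compound; DMSO or DMF (2%) buffer served as control. Released proteins were reduced, alkylated, gel-separated and identified by mass spectrometry.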

The target of the next assay is T1, EphB1 (Mus musculus, UniProt Q8CBF3).
T1 sequence (Q8CBF3 18-984): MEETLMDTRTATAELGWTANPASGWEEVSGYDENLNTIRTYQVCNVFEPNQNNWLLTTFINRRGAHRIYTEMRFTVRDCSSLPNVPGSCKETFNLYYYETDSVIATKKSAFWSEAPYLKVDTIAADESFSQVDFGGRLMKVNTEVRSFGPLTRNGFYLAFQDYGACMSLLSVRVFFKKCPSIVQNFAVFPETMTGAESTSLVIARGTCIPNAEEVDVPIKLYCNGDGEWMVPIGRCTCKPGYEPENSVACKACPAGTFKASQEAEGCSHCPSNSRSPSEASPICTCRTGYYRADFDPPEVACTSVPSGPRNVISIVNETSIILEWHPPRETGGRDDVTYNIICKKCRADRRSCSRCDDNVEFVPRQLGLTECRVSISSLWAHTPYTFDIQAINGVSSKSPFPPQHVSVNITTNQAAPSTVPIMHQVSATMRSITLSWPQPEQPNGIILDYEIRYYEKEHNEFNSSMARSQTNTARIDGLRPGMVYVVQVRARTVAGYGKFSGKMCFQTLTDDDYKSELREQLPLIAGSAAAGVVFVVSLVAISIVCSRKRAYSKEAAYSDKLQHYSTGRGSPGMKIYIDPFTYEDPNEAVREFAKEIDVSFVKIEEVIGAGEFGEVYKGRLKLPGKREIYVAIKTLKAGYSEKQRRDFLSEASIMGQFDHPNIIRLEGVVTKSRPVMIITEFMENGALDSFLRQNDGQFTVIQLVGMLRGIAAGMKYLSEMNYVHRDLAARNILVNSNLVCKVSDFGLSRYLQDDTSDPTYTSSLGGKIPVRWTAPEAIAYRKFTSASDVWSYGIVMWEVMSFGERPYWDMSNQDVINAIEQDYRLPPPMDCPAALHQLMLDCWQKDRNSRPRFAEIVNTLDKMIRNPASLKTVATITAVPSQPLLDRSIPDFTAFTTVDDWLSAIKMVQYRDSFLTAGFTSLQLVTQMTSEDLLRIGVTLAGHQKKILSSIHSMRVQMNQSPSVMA
The procedure, abridged:
as §1

The next assay deals with T2, p38a (Mus musculus, UniProt P47811).
T2 construct: from tissue; host or cells: mouse brain
The procedure, abridged:
as §1

A further assay concerns the target T3, p38b (Mus musculus, UniProt Q9WUI1).
T3 construct: from tissue; host or cells: mouse brain
The procedure, abridged:
as §1

The target in another assay is T4, TRKB (Mus musculus, UniProt P15209).
T4 construct: from tissue; host or cells: mouse brain
From the text: This example illustrates competitive elution of proteins bound to kinobeads with non-modified test compounds (see particularly the fourth aspect of the invention).
The kinobeads were contacted with mouse brain lysate under conditions that allow the binding of the proteins in the lysate to the ligands. The binding conditions were close to physiological by choosing suitable buffer conditions preserving the function of the proteins. After removing non-captured proteins through a gentle washing procedure the bound proteins were contacted with a test compound for protein elution.
Various test compounds (see section 2.7) were used to release bound proteins following these steps:
1. Resuspend beads with bound proteins (section 2.4) in 1×DP buffer/0.2% NP-40 as 1:3 slurry (volume/volume). 2. Transfer 20 μl the 1:3 slurry into MoBiTech columns (equivalent to 5 μl of beads). 3. Place the column into an Eppendorf tube and centrifuge it for 15 seconds at 800 rpm at 4° C. Close columns with lower lid. 4. Add 10 μl elution buffer containing 1.0 mM of the test compound (concentration ranges of 0.1 to 1.0 mM are suitable). As a control use elution buffer containing 2% DMSO or 2% DMF dependent on the solvent used for dissolving the test compound. Close column with upper lid. 5. Incubate for 30 minutes at 4° C. in an Eppendorf incubator at 700 rpm. 6. […] To harvest the eluate centrifuge 2 minutes at 2.000 rpm in table top centrifuge at room temperature. The typical volume of the eluate is approximately 15 μl. 7. Add 5 μl 4× NuPAGE SDS Sample Buffer (Invitrogen, NP0007) containing 100 mM DTT (DTT has to be added just prior to use). 8. Incubate for 30 minutes at 50° C. 9. Add 1/10 volume of 200 mg/ml iodoacetamide, incubate for 30 min at room temperature, protect from light. This reaction leads to the alkylation of cysteines for mass spectrometry. 10. Before loading samples onto the gel, centrifuge samples for 5 minutes at 15.000 rpm in order to remove precipitates. 11. […] 2.6 Preparation of Stock Solutions used in this Protocol
Search criteria varied depending on which mass spectrometer was used for the analysis.

The next assay deals with T5, PKCa (Mus musculus, UniProt P20444).
T5 construct: from tissue; host or cells: mouse brain
The procedure, abridged:
as §1

T4 sequence (P15209 32-821): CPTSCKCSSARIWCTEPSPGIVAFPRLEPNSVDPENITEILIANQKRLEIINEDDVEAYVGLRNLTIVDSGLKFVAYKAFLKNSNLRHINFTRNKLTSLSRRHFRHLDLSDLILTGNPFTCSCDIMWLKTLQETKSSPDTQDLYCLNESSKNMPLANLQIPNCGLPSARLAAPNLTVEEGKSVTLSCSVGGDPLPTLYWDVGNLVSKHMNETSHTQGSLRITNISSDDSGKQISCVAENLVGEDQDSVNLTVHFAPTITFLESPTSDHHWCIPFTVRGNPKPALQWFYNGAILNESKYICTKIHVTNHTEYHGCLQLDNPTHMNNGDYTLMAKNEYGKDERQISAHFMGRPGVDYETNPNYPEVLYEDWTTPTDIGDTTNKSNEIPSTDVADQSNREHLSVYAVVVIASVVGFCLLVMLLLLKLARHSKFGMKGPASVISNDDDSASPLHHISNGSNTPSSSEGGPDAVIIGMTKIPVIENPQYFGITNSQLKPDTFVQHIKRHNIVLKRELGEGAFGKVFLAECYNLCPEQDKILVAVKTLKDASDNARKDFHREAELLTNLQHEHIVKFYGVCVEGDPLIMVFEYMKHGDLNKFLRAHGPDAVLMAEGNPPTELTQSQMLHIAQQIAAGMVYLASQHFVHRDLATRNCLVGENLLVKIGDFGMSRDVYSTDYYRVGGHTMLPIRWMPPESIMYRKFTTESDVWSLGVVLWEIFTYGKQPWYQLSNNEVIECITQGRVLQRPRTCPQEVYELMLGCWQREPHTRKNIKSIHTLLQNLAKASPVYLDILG
T2 sequence (P47811 whole entry): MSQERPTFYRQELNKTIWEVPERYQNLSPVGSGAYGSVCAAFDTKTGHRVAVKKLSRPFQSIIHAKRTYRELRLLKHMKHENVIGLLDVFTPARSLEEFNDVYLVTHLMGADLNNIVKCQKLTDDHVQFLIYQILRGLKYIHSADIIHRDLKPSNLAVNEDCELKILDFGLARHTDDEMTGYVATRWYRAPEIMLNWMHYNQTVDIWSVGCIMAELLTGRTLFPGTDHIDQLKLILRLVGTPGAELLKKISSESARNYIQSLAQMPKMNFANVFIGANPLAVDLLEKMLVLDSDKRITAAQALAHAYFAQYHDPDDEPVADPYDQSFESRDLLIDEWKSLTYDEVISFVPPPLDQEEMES
Chain of ARG (Q4JIM5 whole entry): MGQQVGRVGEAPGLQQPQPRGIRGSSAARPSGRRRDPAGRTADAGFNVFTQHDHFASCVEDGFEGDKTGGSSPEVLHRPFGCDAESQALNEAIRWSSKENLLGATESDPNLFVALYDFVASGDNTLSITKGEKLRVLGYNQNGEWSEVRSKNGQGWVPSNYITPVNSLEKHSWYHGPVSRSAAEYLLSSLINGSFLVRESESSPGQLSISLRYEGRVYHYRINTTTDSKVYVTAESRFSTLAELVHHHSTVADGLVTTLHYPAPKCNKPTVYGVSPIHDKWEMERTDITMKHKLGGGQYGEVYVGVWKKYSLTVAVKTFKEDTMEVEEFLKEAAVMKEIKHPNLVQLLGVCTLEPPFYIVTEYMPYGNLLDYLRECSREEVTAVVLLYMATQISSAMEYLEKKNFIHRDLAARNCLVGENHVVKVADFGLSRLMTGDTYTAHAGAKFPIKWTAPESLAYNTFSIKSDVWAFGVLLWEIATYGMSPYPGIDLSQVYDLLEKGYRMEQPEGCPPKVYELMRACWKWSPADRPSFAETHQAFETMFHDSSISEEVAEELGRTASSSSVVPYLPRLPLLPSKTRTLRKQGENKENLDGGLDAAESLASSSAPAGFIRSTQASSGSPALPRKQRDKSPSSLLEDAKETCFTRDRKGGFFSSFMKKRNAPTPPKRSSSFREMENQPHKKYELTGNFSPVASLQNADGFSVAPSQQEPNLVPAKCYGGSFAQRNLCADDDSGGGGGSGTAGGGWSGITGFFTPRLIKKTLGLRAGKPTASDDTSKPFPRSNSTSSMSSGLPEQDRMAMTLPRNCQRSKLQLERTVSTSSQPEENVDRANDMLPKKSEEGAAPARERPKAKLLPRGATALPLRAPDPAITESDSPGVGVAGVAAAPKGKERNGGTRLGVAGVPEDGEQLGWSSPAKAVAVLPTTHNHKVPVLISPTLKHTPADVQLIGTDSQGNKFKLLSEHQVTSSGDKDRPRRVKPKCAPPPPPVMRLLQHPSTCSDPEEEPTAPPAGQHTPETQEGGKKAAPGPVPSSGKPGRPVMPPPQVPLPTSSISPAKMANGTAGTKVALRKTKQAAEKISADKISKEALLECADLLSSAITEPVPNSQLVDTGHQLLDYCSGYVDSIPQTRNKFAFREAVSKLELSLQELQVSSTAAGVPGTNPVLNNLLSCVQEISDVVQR
T3 sequence (Q9WUI1 whole entry): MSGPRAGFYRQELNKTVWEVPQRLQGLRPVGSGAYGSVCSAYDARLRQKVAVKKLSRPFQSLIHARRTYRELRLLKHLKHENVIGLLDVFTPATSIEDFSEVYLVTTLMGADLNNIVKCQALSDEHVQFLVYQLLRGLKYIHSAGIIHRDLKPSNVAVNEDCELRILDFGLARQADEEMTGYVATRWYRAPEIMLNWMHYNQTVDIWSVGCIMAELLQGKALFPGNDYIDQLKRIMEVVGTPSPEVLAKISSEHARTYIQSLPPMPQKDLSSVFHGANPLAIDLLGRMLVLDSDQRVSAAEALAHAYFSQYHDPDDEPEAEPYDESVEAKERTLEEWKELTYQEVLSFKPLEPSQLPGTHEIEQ

For `CCCCCCCCCCCCOS(=O)(=O)[O-].[Na+]` [SDS], at ARG, the “mass spectrometry score, ARG” value is 452 and the “number of identified peptides, ARG” value amounted to 28. In addition, on EphB1, the “mass spectrometry score, EphB1” value was 180 and the “number of identified peptides, EphB1” value is recorded as 10. On p38a, the “mass spectrometry score, p38a” value came to 104 and the “number of identified peptides, p38a” value was found to be 7. At p38b, the “mass spectrometry score, p38b” value amounted to 95 and the “number of identified peptides, p38b” value was 3.

Turning to `CC(C)[C@H](CO)Nc1nc(Nc2ccc(C(=O)O)c(Cl)c2)c2ncn(C(C)C)c2n1` [Purvalanol B, reference compound], at EphB1, the “mass spectrometry score, EphB1” value worked out at 366 and the “number of identified peptides, EphB1” value was 10. For the same compound, on TRKB, the “mass spectrometry score, TRKB” value was determined as 207 and the “number of identified peptides, TRKB” value was 4.

With `CNC1CC2OC(C)(C1OC)n1c3ccccc3c3c4c(c5c6ccccc6n2c5c31)C(=O)NC4` (stereo not drawn) [CZC9280], on PKCa, the “mass spectrometry score, PKCa” value is listed as 64 and the “number of identified peptides, PKCa” value is on record as 1. The “number of identified peptides, TRKB” value at TRKB is 4.

As for `Cn1c(=O)c(-c2c(Cl)cccc2Cl)cc2cnc(Nc3ccc(CN)cc3)cc21` [CZC7324], at ARG, the “mass spectrometry score, ARG” value was 59 and the “number of identified peptides, ARG” value stood at 2. Also, at p38a, the “mass spectrometry score, p38a” value is given as 127 and the “number of identified peptides, p38a” value came out at 6. Besides, at p38b, the “mass spectrometry score, p38b” value is listed as 60 and the “number of identified peptides, p38b” value was 1.
